This note sets out measurements from ChEMBL document CHEMBL5543092, “Design, synthesis, and biological characterization of proteolysis targeting chimera (PROTACs) for the ataxia telangiectasia and RAD3-related (ATR) kinase” (Eur J Med Chem, 2024).

Calls of active or inactive are those of the source. The rule behind the calls is not given here.

Data set [1] in a line: Chemical stability of the compound in at pH 7.4 measured at 24 hrs by HPLC based non-enzymatic stability assay. In kind it is physicochemical. As to conditions: buffer, read-out: Stability.
Data set [2] is described as follows: Chemical stability of the compound in at pH 7.4 measured at 48 hrs by HPLC based non-enzymatic stability assay. It counts as physicochemical. As to conditions: buffer, read-out: Stability.
The nature of data set [3]: Chemical stability of the compound in at pH 7.4 measured at 72 hrs by HPLC based non-enzymatic stability assay. In kind it is physicochemical. As to conditions: buffer, read-out: Stability.
Data set [4] concerns the target Protein cereblon/Serine/threonine-protein kinase ATR (Homo sapiens) (UniProt Q13535+Q96SW2). Kind of data set: PROTAC activity at ATR/CRBN in patient derived human MIA PaCa-2 cells assessed as reduction in protein level at 2 uM measured after 24 hrs by immunoblot analysis relative to untreated control. In kind it is cell-based. More on the design: scale not given: the % may be the effect or the level left. For orientation: In western blotting, separated proteins are transferred to a membrane and probed.

Data set [5] is described as follows: Chemical stability of the compound in at pH 7.4 measured at 6 hrs by HPLC based non-enzymatic stability assay. As to conditions: buffer, read-out: Stability. In kind it is physicochemical.
The test system of the next data set is HEK293. Kind of data set: Cytotoxicity against human HEK293 cells assessed as cell viability at 50 uM incubated for 24 hrs by Alamar Blue reagent based assay relative to control. In kind it is functional. Particulars: read-out: Activity. Background: Alamar Blue is a resazurin reagent that responds to reducing activity.
Data set [6] is described as follows: Chemical stability of the compound in at pH 7.4 measured at 12 hrs by HPLC based non-enzymatic stability assay. Particulars: buffer, read-out: Stability. It counts as physicochemical.

Chain of Protein cereblon/Serine/threonine-protein kinase ATR (Homo sapiens) (Q13535 whole entry, looked up): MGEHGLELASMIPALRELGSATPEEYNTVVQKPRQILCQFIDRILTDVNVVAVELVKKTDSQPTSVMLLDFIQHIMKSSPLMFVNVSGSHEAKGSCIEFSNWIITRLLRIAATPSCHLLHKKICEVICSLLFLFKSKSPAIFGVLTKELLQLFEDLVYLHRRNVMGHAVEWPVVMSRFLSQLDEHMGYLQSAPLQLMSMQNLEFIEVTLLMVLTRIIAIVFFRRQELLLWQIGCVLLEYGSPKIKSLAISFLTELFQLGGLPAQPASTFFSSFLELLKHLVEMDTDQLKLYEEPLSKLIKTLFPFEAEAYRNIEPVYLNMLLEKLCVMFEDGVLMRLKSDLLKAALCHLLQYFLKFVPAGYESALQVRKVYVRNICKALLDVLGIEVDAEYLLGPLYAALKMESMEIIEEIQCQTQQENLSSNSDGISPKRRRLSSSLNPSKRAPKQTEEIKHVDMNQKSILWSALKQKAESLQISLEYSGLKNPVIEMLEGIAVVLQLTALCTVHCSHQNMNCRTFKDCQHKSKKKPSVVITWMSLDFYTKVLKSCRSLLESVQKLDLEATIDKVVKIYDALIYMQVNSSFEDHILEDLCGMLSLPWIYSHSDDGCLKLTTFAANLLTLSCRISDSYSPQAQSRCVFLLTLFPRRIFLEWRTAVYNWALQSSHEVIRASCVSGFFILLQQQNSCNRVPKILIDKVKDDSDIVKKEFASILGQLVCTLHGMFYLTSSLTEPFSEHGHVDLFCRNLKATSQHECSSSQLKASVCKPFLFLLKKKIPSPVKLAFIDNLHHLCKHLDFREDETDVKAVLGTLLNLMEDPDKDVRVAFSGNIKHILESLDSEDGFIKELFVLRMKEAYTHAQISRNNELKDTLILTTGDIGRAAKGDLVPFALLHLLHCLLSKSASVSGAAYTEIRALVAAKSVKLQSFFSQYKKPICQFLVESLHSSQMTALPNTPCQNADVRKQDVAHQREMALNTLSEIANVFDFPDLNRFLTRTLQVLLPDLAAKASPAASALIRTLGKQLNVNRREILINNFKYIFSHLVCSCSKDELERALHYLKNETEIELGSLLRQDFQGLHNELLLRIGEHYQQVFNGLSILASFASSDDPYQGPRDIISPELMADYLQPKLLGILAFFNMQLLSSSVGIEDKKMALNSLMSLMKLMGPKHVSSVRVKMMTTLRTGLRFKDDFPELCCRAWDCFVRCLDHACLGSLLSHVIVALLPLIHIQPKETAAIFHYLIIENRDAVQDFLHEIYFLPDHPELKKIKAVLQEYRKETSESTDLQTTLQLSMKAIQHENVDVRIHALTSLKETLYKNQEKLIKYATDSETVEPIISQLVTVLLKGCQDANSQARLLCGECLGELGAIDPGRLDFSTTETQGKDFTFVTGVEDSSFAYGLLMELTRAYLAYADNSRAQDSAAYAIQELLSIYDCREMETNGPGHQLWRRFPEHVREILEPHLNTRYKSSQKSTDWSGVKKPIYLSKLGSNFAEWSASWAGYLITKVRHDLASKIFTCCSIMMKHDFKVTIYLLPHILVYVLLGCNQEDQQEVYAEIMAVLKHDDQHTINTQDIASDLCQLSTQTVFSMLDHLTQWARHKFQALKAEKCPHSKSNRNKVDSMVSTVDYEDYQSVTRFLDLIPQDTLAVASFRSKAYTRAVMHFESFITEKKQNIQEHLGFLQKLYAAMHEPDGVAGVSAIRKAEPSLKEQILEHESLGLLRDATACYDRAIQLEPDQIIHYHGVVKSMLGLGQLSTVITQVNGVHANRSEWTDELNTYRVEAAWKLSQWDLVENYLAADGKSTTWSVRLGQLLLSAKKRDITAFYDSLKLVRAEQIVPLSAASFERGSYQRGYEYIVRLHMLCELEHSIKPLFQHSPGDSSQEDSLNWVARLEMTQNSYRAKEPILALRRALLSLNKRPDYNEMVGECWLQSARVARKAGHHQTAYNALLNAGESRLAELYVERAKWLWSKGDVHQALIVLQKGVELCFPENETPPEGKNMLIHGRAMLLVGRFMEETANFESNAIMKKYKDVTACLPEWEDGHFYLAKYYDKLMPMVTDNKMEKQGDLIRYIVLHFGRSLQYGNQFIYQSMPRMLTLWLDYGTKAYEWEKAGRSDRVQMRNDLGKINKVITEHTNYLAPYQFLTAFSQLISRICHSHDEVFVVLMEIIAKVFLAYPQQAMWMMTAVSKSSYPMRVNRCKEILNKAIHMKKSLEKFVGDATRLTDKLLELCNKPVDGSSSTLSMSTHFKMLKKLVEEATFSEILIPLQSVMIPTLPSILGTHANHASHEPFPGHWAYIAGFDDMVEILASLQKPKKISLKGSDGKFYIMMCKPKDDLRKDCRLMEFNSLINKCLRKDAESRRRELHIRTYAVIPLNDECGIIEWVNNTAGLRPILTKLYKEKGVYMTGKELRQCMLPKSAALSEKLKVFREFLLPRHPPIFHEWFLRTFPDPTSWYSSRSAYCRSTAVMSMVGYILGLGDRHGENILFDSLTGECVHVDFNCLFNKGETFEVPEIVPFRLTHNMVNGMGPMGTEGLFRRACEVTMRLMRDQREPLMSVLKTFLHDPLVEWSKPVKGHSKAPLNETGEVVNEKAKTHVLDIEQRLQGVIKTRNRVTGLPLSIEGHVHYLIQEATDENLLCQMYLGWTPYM
Chain of Protein cereblon/Serine/threonine-protein kinase ATR (Homo sapiens) (Q96SW2 whole entry, looked up): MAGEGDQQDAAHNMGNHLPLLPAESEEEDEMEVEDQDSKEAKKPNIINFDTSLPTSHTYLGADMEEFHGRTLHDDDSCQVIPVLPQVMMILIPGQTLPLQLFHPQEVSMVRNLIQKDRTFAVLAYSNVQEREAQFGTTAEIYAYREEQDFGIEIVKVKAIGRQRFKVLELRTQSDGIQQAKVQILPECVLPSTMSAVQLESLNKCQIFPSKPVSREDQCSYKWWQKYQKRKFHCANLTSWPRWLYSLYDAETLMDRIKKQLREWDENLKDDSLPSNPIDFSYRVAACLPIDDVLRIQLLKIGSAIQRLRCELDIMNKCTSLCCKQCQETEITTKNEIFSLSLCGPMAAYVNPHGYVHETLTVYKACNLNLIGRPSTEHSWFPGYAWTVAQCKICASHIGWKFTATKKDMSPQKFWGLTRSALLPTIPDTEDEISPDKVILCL

With `Nc1ncc(-c2ccc(S(=O)(=O)NCCCCC(=O)N3CCN(c4ccc5c(c4)C(=O)N(C4CCC(=O)NC4=O)C5=O)CC3)cc2)nc1C(=O)Nc1ccccc1` (stereo not drawn), the remaining at 24 h in data set [1] was 90%. Moreover, the remaining at 48 h in data set [2] was found to be 82%. For the same molecule, in data set [3], the remaining at 72 h worked out at 74%. The result in data set [4] was inactive. The remaining at 6 h in data set [5] was found to be 97%. The viability at 50 µM with HEK293 was 102%. Also, the remaining at 12 h in data set [6] turned out to be 94%.
As to `CNCc1ccc(-c2nnc(-c3nc(-c4ccc(S(=O)(=O)NCCCCCC(=O)N[C@H](C(=O)N5C[C@H](O)C[C@H]5C(=O)NCc5ccc(-c6scnc6C)cc5)C(C)(C)C)cc4)cnc3N)o2)cc1`, in data set [1], the remaining at 24 h stood at 101%. The remaining at 48 h in data set [2] was 99%. Moreover, in data set [3], the remaining at 72 h turned out to be 99%. Also, in data set [5], the remaining at 6 h was 101%. Moreover, the viability at 50 µM in the data set with HEK293 came to 81.8%. Further, the remaining at 12 h in data set [6] amounted to 100%.
As to `Nc1ncc(-c2ccc(S(=O)(=O)NCCOCCOCCC(=O)N3CCN(c4ccc5c(c4)C(=O)N(C4CCC(=O)NC4=O)C5=O)CC3)cc2)nc1C(=O)Nc1ccccc1` (stereo not drawn), the remaining at 24 h in data set [1] was 80%. Besides, the remaining at 48 h in data set [2] amounted to 21%. In data set [3], the remaining at 72 h was determined as 6%. In data set [4], the result was inactive. Also, the remaining at 6 h in data set [5] came out at 100%. In addition, in the data set on HEK293, the viability at 50 µM is 79.9%. Further, in data set [6], the remaining at 12 h came to 95%.
As for `CNCc1ccc(-c2nnc(-c3nc(-c4ccc(S(=O)(=O)NCCCCCCC(=O)N5CCN(c6ccc7c(c6)C(=O)N(C6CCC(=O)NC6=O)C7=O)CC5)cc4)cnc3N)o2)cc1` (stereo not drawn), in data set [1], the remaining at 24 h amounted to 91%. The remaining at 48 h in data set [2] worked out at 79%. Moreover, the remaining at 72 h in data set [3] stood at 72%. Moreover, in data set [5], the remaining at 6 h is 97%. Besides, the viability at 50 µM with HEK293 was 95.7%. In data set [6], the remaining at 12 h amounted to 95%.
For the molecule `CNCc1ccc(-c2nnc(-c3nc(-c4ccc(S(=O)(=O)NCCCCCC(=O)NCCCC#Cc5cccc6c5CN(C5CCC(=O)NC5=O)C6=O)cc4)cnc3N)o2)cc1` (stereo not drawn), the remaining at 24 h in data set [1] stood at 103%. Besides, the remaining at 48 h in data set [2] amounted to 103%. The remaining at 72 h in data set [3] turned out to be 102%. Moreover, the result in data set [4] was inactive. The remaining at 6 h in data set [5] came to 104%. Besides, the viability at 50 µM in the data set with HEK293 stood at 101%. In data set [6], the remaining at 12 h turned out to be 103%.
Take `Nc1ncc(-c2ccc(S(=O)(=O)NCCCCCCCC(=O)NCC#Cc3cccc4c3CN(C3CCC(=O)NC3=O)C4=O)cc2)nc1C(=O)Nc1ccccc1` (stereo not drawn): in data set [1], the remaining at 24 h was determined as 98%. Also, the remaining at 48 h in data set [2] is 77%. In data set [3], the remaining at 72 h worked out at 47%. In data set [5], the remaining at 6 h is 100%. Further, in the data set with HEK293, the viability at 50 µM amounted to 94.2%. In data set [6], the remaining at 12 h amounted to 100%.
For the molecule `Cc1ncsc1-c1ccc(CNC(=O)[C@@H]2C[C@@H](O)CN2C(=O)[C@@H](NC(=O)CCCCNS(=O)(=O)c2ccc(-c3cnc(N)c(-c4nnc(-c5ccccc5)o4)n3)cc2)C(C)(C)C)cc1`, the remaining at 24 h in data set [1] was determined as 102%. The remaining at 48 h in data set [2] turned out to be 103%. Further, the remaining at 72 h in data set [3] was determined as 104%. Further, the remaining at 6 h in data set [5] came to 100%. In addition, in the data set on HEK293, the viability at 50 µM was 91.1%. Also, the remaining at 12 h in data set [6] came out at 100%.
Turning to `CNCc1ccc(-c2nnc(-c3nc(-c4ccc(S(=O)(=O)NCCCCCCC(=O)NCC#Cc5cccc6c5CN(C5CCC(=O)NC5=O)C6=O)cc4)cnc3N)o2)cc1` (stereo not drawn), in data set [1], the remaining at 24 h came out at 101%. Moreover, the remaining at 48 h in data set [2] is 100%. For the same molecule, the remaining at 72 h in data set [3] is 101%. In addition, the Activity in data set [4] was above 20%. Besides, the remaining at 6 h in data set [5] was determined as 101%. In the data set on HEK293, the viability at 50 µM is 89.5%. Besides, in data set [6], the remaining at 12 h is 101%.
Take `Nc1ncc(-c2ccc(S(=O)(=O)NCCOCCOCCOCCC(=O)N3CCN(c4ccc5c(c4)C(=O)N(C4CCC(=O)NC4=O)C5=O)CC3)cc2)nc1C(=O)Nc1ccccc1` (stereo not drawn): the remaining at 24 h in data set [1] was 97%. The remaining at 48 h in data set [2] turned out to be 83%. The remaining at 72 h in data set [3] turned out to be 74%. In addition, the outcome in data set [4] was inactive. Moreover, the remaining at 6 h in data set [5] was found to be 101%. The viability at 50 µM in the data set on HEK293 came to 75%. The remaining at 12 h in data set [6] came to 100%.
In the case of `Nc1ncc(-c2ccc(S(=O)(=O)NCCCCC(=O)N3CCN(c4ccc5c(c4)C(=O)N(C4CCC(=O)NC4=O)C5=O)CC3)cc2)nc1-c1nnc(-c2ccccc2)o1` (stereo not drawn), in data set [1], the remaining at 24 h was found to be 91%. The remaining at 48 h in data set [2] came out at 85%. For the same molecule, the remaining at 72 h in data set [3] was determined as 77%. The remaining at 6 h in data set [5] was 99%. Further, the viability at 50 µM with HEK293 stood at 97.6%. The remaining at 12 h in data set [6] was 95%.
For `CNCc1ccc(-c2nnc(-c3nc(-c4ccc(S(=O)(=O)NCCCCCC(=O)NCC#Cc5cccc6c5CN(C5CCC(=O)NC5=O)C6=O)cc4)cnc3N)o2)cc1` (stereo not drawn), the remaining at 24 h in data set [1] came out at 101%. In addition, in data set [2], the remaining at 48 h came to 100%. The remaining at 72 h in data set [3] came to 100%. The Activity in data set [4] is above 20%. The remaining at 6 h in data set [5] was determined as 101%. For the same molecule, the viability at 50 µM in the data set with HEK293 was 102%. For the same molecule, the remaining at 12 h in data set [6] stood at 101%.
Turning to `CNCc1ccc(-c2nnc(-c3nc(-c4ccc(S(=O)(=O)NCCCCCCC(=O)NCCCC#Cc5cccc6c5CN(C5CCC(=O)NC5=O)C6=O)cc4)cnc3N)o2)cc1` (stereo not drawn), the remaining at 24 h in data set [1] amounted to 101%. Besides, in data set [2], the remaining at 48 h stood at 95%. Further, the remaining at 72 h in data set [3] came to 93%. In data set [4], the Activity is above 20%. Moreover, the remaining at 6 h in data set [5] was determined as 101%. For the same molecule, the viability at 50 µM with HEK293 was 91.8%. Besides, in data set [6], the remaining at 12 h came out at 101%.
Consider `CNCc1ccc(-c2nnc(-c3nc(-c4ccc(S(=O)(=O)NCCCCC(=O)N5CCN(c6ccc7c(c6)C(=O)N(C6CCC(=O)NC6=O)C7=O)CC5)cc4)cnc3N)o2)cc1` (stereo not drawn), for which the remaining at 24 h in data set [1] amounted to 91%. For the same molecule, the remaining at 48 h in data set [2] worked out at 83%. For the same molecule, in data set [3], the remaining at 72 h worked out at 74%. Moreover, the remaining at 6 h in data set [5] was found to be 97%. Moreover, the viability at 50 µM in the data set on HEK293 came out at 104%. In addition, the remaining at 12 h in data set [6] is 99%.
As to `Cc1ncsc1-c1ccc(CNC(=O)[C@@H]2C[C@@H](O)CN2C(=O)[C@@H](NC(=O)CCCCCNS(=O)(=O)c2ccc(-c3cnc(N)c(-c4nnc(-c5ccccc5)o4)n3)cc2)C(C)(C)C)cc1`, the remaining at 24 h in data set [1] was found to be 102%. In addition, the remaining at 48 h in data set [2] stood at 103%. Also, in data set [3], the remaining at 72 h is 104%. Moreover, in data set [5], the remaining at 6 h came to 100%. The viability at 50 µM in the data set on HEK293 amounted to 79.8%. The remaining at 12 h in data set [6] was found to be 100%.
For `Nc1ncc(-c2ccc(S(=O)(=O)NCCCCCCC(=O)N3CCN(c4ccc5c(c4)C(=O)N(C4CCC(=O)NC4=O)C5=O)CC3)cc2)nc1C(=O)Nc1ccccc1` (stereo not drawn), in data set [1], the remaining at 24 h is 88%. Moreover, the remaining at 48 h in data set [2] was found to be 78%. In addition, the remaining at 72 h in data set [3] was 70%. Further, the remaining at 6 h in data set [5] turned out to be 97%. The viability at 50 µM in the data set with HEK293 worked out at 93.2%. Besides, the remaining at 12 h in data set [6] turned out to be 92%.
Turning to `Nc1ncc(-c2ccc(S(=O)(=O)NCCCCC(=O)NCCCC#Cc3cccc4c3CN(C3CCC(=O)NC3=O)C4=O)cc2)nc1C(=O)Nc1ccccc1` (stereo not drawn), in data set [1], the remaining at 24 h turned out to be 102%. Also, the remaining at 48 h in data set [2] turned out to be 103%. For the same molecule, in data set [3], the remaining at 72 h worked out at 103%. Also, the remaining at 6 h in data set [5] is 102%. Moreover, in the data set on HEK293, the viability at 50 µM came to 104%. Besides, in data set [6], the remaining at 12 h was determined as 102%.
